Where two headings read alike, the source gives them in different places.

In experiment [1] the test system is experimental DTH reaction in mice. Kind of experiment: In vivo bioassay of inhibition of experimental DTH reactivity (oxazolone ear swelling). Also noted: species or system mice (BALB/c or CD1). Particulars: CD1 mice, s.c. On the procedure: Groups of inbred BALB/c (Jackson Laboratories, Bar Harbor, ME) or of outbred CD1 (Weizmann Institute Animal Breeding Center, Rehovot, Israel) mice are sensitized on the shaved abdominal skin with 100 µl of 2% oxazolone (OX) in acetone/olive oil (4/1, v/v) applied topically. DTH sensitivity is elicited 5 days later as follows: mice are challenged with 20 µl of 0.5% OX (10 µl administered topically to each side of the ear) in acetone/olive oil. A constant area of the ear is measured immediately before challenge and 24 and 48 h later with a Mitutoyo engineer's micrometer. The individual measuring ear swelling is blinded to the identity of the groups of mice. The increment (△) of ear swelling is expressed as the mean in units of 10^-2 mm or 10^-4 inch (+SE) depending on the micrometer that is used. Percent inhibition is calculated as follows: %Inhibition= 1-((Treated-negative control)/(positive control-negative control)) [formula]
Mice are treated with LMWH as in Example 5.1, injected the day before primary sensitization to OX. On the fifth day after sensitization to OX, the mice are challenged to induce a DTH reaction, as described above.
The positive control is the DTH reaction elicited in immunized mice in the absence of treatment with LMWH. The negative control is the background swelling produced by the antigen in naive (non-immunized) mice.
BALB/c mice (at least 5 mice per group) were sensitized on the shaved abdomen with 3% 4-ethoxymethylene-2-phenyl oxazolone (OX; BDH Chemicals, GB) in acetone/olive oil applied topically. DTH sensitivity was elicited 5 days later as follows. Mice were challenged with 0.5% OX in acetone/olive oil. The ear was measured immediately before challenge and 24 h later with Mitutoyo engineer's micrometer (Japan). The individual measuring the swelling of the ear was blinded to the identity of the groups of mice. To interfere with DTH response, the low molecular weight immuno-regulatory fractions, diluted in PBS, were administrated subcutaneously into the back of the treated mice at the indicated time schedules and concentrations. Treated mice were inspected during and after (>2 months) the treatment and no major side-effects were observed clinically.
In particular, CD1 mice (available from the Weizmann Institute Animal Breeding Center, Rehovot, Israel), 4-12 mice per group, were treated as described in Section 5.2 or 6.8.

Another experiment concerns LPS-induced uveitis. The settings on record: for Median Protein: LPS with saline 18.4, no LPS 0.36.

Molecule `O=C(O)C1=C[C@H](O)[C@@H](OS(=O)(=O)O)[C@H](O[C@H]2[C@H](O)[C@@H](NS(=O)(=O)O)C(O)O[C@@H]2CO)O1` (stereo partly drawn) [H-9392, 2-O-sulfate-4-deoxy-4-en-iduronic acid-(α-1,4)-2-deoxy-2-N-sulfateglucosamine] showed an Inhmax in experiment [1] of 78%. Also, in experiment [1] (at that dose, value in parentheses in the cell taken as positive control, not reported), the DTH is given as 4.2 ± 0.7 (17.8 ± 0.9) 10^-2 mm. Also, the dose window in experiment [1] (broadest of the compounds tested) was 0.000132-0.004 µg/gm. Moreover, the “"R" value” in experiment [1] (inhibitory, 0 = no effect) is given as 6.5 x 10^4 % x (μg/gm)^-1. The “Median Protein” value with LPS-induced uveitis (32 ng/rat at Day 1) was 5.2 mg/mL; in the experiment with LPS-induced uveitis (500 ng/rat at Day 1) it was 4.8 mg/mL. In addition, the “suppression of the inflammation relative to control” value with LPS-induced uveitis (single administration, at either dosage) is “over 70%”.

The record behind these values is EP1095657A2, “Compositions for the regulation of cytokine activity” (priority 1992, dated 1994).
